These results are taken from patent publication US10501516B2, “Peptide compound” (TAKEDA PHARMACEUTICAL COMPANY LIMITED, priority 2016, dated 2019).

Molecules are shown by their SMILES. Square brackets hold non-standard residues; d marks the D form. Side chains are listed from the residue outwards. Peptide text beside a SMILES is read from it. * marks the point of attachment. C18 diacid = O=C(O)CCCCCCCCCCCCCCCCC(=O)*; NMeY = CN[C@@H](Cc1ccc(O)cc1)C(=O)O; Palmitoyl = CCCCCCCCCCCCCCCC(=O)*; αMeF = C[C@](N)(Cc1ccccc1)C(=O)O; Iva = CC[C@](C)(N)C(=O)O; Aib = CC(C)(N)C(=O)O

Data set [1] relates to Male C57BL/6J mice. Briefly: Conditioned taste aversion (CTA) test. To be noted: 10 nmol/kg s.c. The class given is in vivo, mouse. The procedure:
Male C57BL/6J (9 weeks old) mice were habituated to time-restricted bottled water supply (2-3 hours/day) and subcutaneous injection of saline for 1 week. Mice were divided into the groups based on the data of body weight and water intake. CTA test was performed according to the following protocol. On day 1 for the first conditioning, mice were given 0.1% sodium saccharin solution to drink for 3 hours. Ten-minutes after supplying the saccharin solution, vehicles, liraglutides and P41 were administered subcutaneously. […] On day 2, mice were given tap water for 3 hours and subcutaneous injection of saline after water supply. On day 3, the second conditioning was conducted as the same procedure used on day 1. On day 4, mice were given tap water for 3 hours without subcutaneous injection. On day 5, both tap water and saccharin solution were supplied to mice for 3 hours without subcutaneous injection and the intake of each fluid was measured. Saccharin preference ratio (%) was calculated according to the following equation: {(amount of saccharin intake)/(amount of saccharin intake+amount of water intake)}×100.

Data set [2] deals with T1, human GLP-1R (Homo sapiens, UniProt P43220).
T1 construct: expressed in transfected cells; host or cells: CHO-K1 Cre-luc reporter cells (hGLP-1R/Crel cells)
T1 sequence (P43220 24-463): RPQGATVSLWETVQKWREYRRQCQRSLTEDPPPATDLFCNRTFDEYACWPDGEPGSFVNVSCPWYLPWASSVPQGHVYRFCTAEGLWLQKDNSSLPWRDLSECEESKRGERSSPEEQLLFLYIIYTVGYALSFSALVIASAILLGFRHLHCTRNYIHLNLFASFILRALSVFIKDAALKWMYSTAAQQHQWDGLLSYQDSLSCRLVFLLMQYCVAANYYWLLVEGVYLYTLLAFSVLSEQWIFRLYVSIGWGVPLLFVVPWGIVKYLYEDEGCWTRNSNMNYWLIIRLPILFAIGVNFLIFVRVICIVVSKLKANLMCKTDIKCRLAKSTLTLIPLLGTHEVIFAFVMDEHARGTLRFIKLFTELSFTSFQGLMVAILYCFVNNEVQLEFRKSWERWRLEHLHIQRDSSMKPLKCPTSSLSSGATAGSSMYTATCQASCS
Briefly: Reporter assay of human GLP-1R gene (agonist activity, intracellular cAMP as index). The format is cell-based. To be noted: Cre-luc reporter, hGLP-1R/Crel cells (CHO-K1), 4 hours. An excerpt: Evaluation of Agonist Activity Against Human NPY2R, Human GIPR, and Human GLP-1R Using Change in Intracellular cAMP Concentration as Index
The human GLP-1R gene having a sequence identical to the sequence of GenBank Accession No. NM_002062 was cloned into pIRESneo3 vector (Clontech Laboratories, Inc.) to prepare hGLP-1R/pIRESneo3. This vector was introduced to the Cre-luc reporter cells obtained in (1) to obtain transformants. Next, a cell line induced to express luciferase, i.e., hGLP-1R/Crel cells, were selected from the obtained transformants by the addition of human GLP-1(7-37) peptide.
The hGIPR/CRE-LUC/CHO-K1 cells or the hGLP-1R/Crel cells were inoculated at a cell density of 25 μL/well (5,000 cells/well) to a 384-well white plate (Corning, 3570), and cultured overnight in Ham F12 medium containing 10% fetal bovine serum, 100 U/mL penicillin and 100 μg/mL streptomycin in a CO2 incubator of 37° C. On the next day, a medium containing a test compound was added at a concentration of 5 μL/well to the cells, and the resultant cells were incubated for 4 hours in a CO2 incubator of 37° C. to give the final concentration of 1 μM. SteadyGlo (Promega) was added thereto at a concentration of 30 μL/well, and the mixture was shaken with light shielded. After 30 minutes, the luciferase activity was measured using a plate reader Envision (PerkinElmer). For the GIPR agonist activity, the luciferase activity in the presence of 10 μM GIP was defined as 100%, and the luciferase activity from the addition of DMSO instead of the test compound was defined as 0%. The GIPR agonist activity was calculated with a rise in intracellular cAMP concentration as an index.
For the GLP-1R agonist activity, assay similar to above was conducted using the hGLP-1R/Crel cells. The luciferase activity in the presence of 10 μM GLP-1 was defined as 100%, and the luciferase activity from the addition of DMSO instead of the test compound was defined as 0%. The GLP-1R agonist activity was calculated with a rise in intracellular cAMP concentration as an index.
(In a reporter assay the amount or activity of a reporter protein is the signal.)

For data set [3], the target named is T2, human GIPR (Homo sapiens, UniProt P48546).
T2 construct: expressed in transfected cells; host or cells: CHO-K1 Cre-luc reporter cells (hGIPR/CHO-K1, also called hGIPR/CRE-LUC/CHO-K1)
T2 sequence (P48546 22-466): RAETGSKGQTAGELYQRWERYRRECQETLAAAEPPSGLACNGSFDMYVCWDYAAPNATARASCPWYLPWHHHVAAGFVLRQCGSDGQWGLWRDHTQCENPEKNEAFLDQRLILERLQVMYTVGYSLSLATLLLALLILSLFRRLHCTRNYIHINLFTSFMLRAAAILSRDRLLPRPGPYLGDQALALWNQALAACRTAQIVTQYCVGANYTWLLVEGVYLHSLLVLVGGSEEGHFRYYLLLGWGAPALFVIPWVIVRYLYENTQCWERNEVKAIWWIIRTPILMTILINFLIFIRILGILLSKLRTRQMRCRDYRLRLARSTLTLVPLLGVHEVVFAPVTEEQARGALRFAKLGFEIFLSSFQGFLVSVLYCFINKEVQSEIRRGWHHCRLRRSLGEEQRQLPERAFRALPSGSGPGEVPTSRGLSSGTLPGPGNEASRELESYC
Briefly: Reporter assay of human GIPR gene (agonist activity, intracellular cAMP as index). The format is cell-based. To be noted: Cre-luc reporter, hGIPR/CHO-K1 cells, 4 hours.

Data set [4] addresses T3, human NPY2R (Homo sapiens, UniProt P49146).
T3 construct: expressed in transfected cells; host or cells: CHO-K1 Cre-luc reporter cells (pAKKO1114/hNPY2R#481 No. 88 cells)
T3 sequence (P49146 1-381): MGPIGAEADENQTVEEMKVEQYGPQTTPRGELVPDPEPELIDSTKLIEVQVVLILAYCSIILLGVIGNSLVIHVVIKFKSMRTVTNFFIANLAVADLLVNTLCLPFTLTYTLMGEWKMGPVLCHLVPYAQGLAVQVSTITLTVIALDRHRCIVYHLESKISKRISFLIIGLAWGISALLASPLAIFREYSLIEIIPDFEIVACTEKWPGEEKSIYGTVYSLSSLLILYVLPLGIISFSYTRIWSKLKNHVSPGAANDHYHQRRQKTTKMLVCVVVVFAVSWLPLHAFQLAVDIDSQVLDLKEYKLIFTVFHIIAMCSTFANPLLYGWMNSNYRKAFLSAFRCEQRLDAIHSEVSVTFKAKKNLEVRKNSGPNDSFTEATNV
Briefly: Reporter assay of human NPY2R gene (agonist activity, decrease in intracellular cAMP as index). The format is cell-based. The conditions noted are these: Cre-luc reporter, hNPY2R CHO-K1 cells, forskolin 1.2 μM, 4 hours; read-out: Agonist activity (EC50) hY2R. An outline of the steps:
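CHO-K1 Cre-luciferase reporter cells stably expressing human NPY2R, stimulated with 1.2 μM forskolin and incubated with test compound at a final 1 μM for 4 h at 37° C. Luciferase read by luminescence. DMSO defined as 100% and 1 μM human PYY(3-36) as 0%, so the value reflects the decrease in cAMP.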

Data set [5] relates to male C57BL/6J mouse. As to the kind of experiment: Evaluation of feeding suppressive action in mice. The format is in vivo. The conditions noted are these: 30 nmol/kg s.c. once a day for 3 days; 3-days cumulative food consumption vs solvent control. An outline of the steps:
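Male C57BL/6J mice, 8-9 weeks, ad libitum fed, given compound (30 or 100 nmol/2 mL in 10% DMSO saline) s.c. at 2 mL/kg once daily for 3 days. Cumulative 3-day food consumption measured by weighing; suppression rate (%) calculated relative to vehicle controls.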

In the case of `CCCCCCCCCCCCCCCC(=O)N[C@@H](CCC(=O)NCCCC[C@H](NC(=O)[C@H](C)NC(=O)[C@H](C)NC(=O)[C@H](CCC(N)=O)NC(=O)CNC(=O)[C@H](CCC(=O)O)NC(=O)[C@H](CC(C)C)NC(=O)[C@H](Cc1ccc(O)cc1)NC(=O)[C@H](CO)NC(=O)[C@H](CO)NC(=O)[C@@H](NC(=O)[C@H](CC(=O)O)NC(=O)[C@H](CO)NC(=O)[C@@H](NC(=O)[C@H](Cc1ccccc1)NC(=O)[C@@H](NC(=O)CNC(=O)[C@H](CCC(=O)O)NC(=O)[C@H](C)NC(=O)[C@@H](N)Cc1cnc[nH]1)[C@@H](C)O)[C@@H](C)O)C(C)C)C(=O)N[C@@H](CCC(=O)O)C(=O)N[C@@H](Cc1ccccc1)C(=O)N[C@H](C(=O)N[C@@H](C)C(=O)N[C@@H](Cc1c[nH]c2ccccc12)C(=O)N[C@@H](CC(C)C)C(=O)N[C@H](C(=O)N[C@@H](CCCNC(=N)N)C(=O)NCC(=O)N[C@@H](CCCNC(=N)N)C(=O)NCC(=O)O)C(C)C)[C@@H](C)CC)C(=O)O` [Liraglutide, liraglutide, reference compound], the “induction of conditioned taste aversion (emetic effects)” value in data set [1] is “significantly decreased saccharin preference ratio”.

As for `CC[C@H](C)[C@H](NC(=O)[C@H](CO)NC(=O)[C@H](CCCCNC(=O)CNC(=O)CNC(=O)CNC(=O)CNC(=O)CCCCCCCCCCCCCCCCC(=O)O)NC(=O)[C@H](CC(=O)O)NC(=O)[C@H](CO)NC(=O)[C@@H](NC(=O)[C@](C)(Cc1ccccc1)NC(=O)[C@@H](NC(=O)CNC(=O)[C@H](CCC(=O)O)NC(=O)C(C)(C)NC(=O)[C@H](Cc1ccc(O)cc1)NC)[C@@H](C)O)[C@@H](C)O)C(=O)NC(C)(C)C(=O)N[C@@H](CC(C)C)C(=O)N[C@@H](CCC(=O)O)C(=O)N[C@@H](CCCCN)C(=O)N[C@@H](CCC(N)=O)C(=O)N[C@@H](CCCNC(=N)N)C(=O)N[C@@H](CCC(N)=O)C(=O)N[C@@](C)(CC)C(=O)N[C@@H](CCC(=O)O)C(=O)N[C@@H](Cc1ccccc1)C(=O)N[C@H](C(=O)N[C@@H](CCCNC(=N)N)C(=O)N[C@@H](Cc1c[nH]cn1)C(=O)N[C@@H](CC(C)C)C(=O)N[C@@H](CC(C)C)C(=O)N[C@@H](CC(N)=O)C(=O)N[C@@H](CCCCN)C(=O)NC(C)(C)C(=O)N[C@H](C(=O)N[C@@H](CCCNC(=N)N)C(=O)N[C@@H](CCC(N)=O)C(=O)N[C@@H](CCCNC(=N)N)C(=O)N[C@@H](Cc1ccc(O)cc1)C(N)=O)[C@@H](C)O)C(C)C` [Example 42] (H-[NMeY][Aib]EGT[αMeF]TSDK([Gly-Gly-Gly-Gly-C18 diacid])SI[Aib]LEKQRQ[Iva]EFVRHLLNK[Aib]TRQRY-NH2), the EC50 in data set [2] is 1.3 nM; in data set [3], 0.25 nM; in data set [4] it was 2.6 nM.

As to `CCCCCCCCCCCCCCCC(=O)NCC(=O)NCC(=O)NCC(=O)NCC(=O)NCCCC[C@H](NC(=O)[C@H](CC(=O)O)NC(=O)[C@H](CO)NC(=O)[C@@H](NC(=O)[C@](C)(Cc1ccccc1)NC(=O)[C@@H](NC(=O)CNC(=O)[C@H](CCC(=O)O)NC(=O)C(C)(C)NC(=O)[C@@H](N)Cc1ccc(O)cc1)[C@@H](C)O)[C@@H](C)O)C(=O)N[C@@H](CO)C(=O)N[C@@H](CCCCN)C(=O)NC(C)(C)C(=O)N[C@@H](CC(C)C)C(=O)N[C@@H](CC(=O)O)C(=O)N[C@@H](CCCCN)C(=O)N[C@@H](CCC(N)=O)C(=O)N[C@@H](CCCNC(=N)N)C(=O)N[C@@H](CCC(N)=O)C(=O)N[C@@](C)(CC)C(=O)N[C@@H](CCC(=O)O)C(=O)N[C@@H](Cc1ccccc1)C(=O)N[C@H](C(=O)N[C@@H](CCCNC(=N)N)C(=O)N[C@@H](Cc1c[nH]cn1)C(=O)N[C@@H](CC(C)C)C(=O)N[C@@H](CC(C)C)C(=O)N[C@@H](CC(N)=O)C(=O)N[C@@H](CCCCN)C(=O)NC(C)(C)C(=O)N[C@H](C(=O)N[C@@H](CCCNC(=N)N)C(=O)N[C@@H](CCC(N)=O)C(=O)N[C@@H](CCCNC(=N)N)C(=O)N[C@@H](Cc1ccc(O)cc1)C(N)=O)[C@@H](C)O)C(C)C` [Example 23] (H-Y[Aib]EGT[αMeF]TSDK([Gly-Gly-Gly-Gly-Palmitoyl])SK[Aib]LDKQRQ[Iva]EFVRHLLNK[Aib]TRQRY-NH2), the EC50 was 0.13 nM in data set [2] and 0.091 nM in data set [3].

Compound `CCCCCCCCCCCCCCCC(=O)NCC(=O)NCC(=O)NCC(=O)NCC(=O)NCCCC[C@H](NC(=O)[C@H](CC(=O)O)NC(=O)[C@H](CO)NC(=O)[C@@H](NC(=O)[C@](C)(Cc1ccccc1)NC(=O)[C@@H](NC(=O)CNC(=O)[C@H](CCC(=O)O)NC(=O)C(C)(C)NC(=O)[C@H](Cc1ccc(O)cc1)NC)[C@@H](C)O)[C@@H](C)O)C(=O)NC(C)(C)C(=O)N[C@H](C(=O)NC(C)(C)C(=O)N[C@@H](CC(C)C)C(=O)N[C@@H](CCC(=O)O)C(=O)N[C@@H](CCCCN)C(=O)N[C@@H](CCC(N)=O)C(=O)N[C@@H](CCCNC(=N)N)C(=O)N[C@@H](CCC(N)=O)C(=O)N[C@@](C)(CC)C(=O)N[C@@H](CCC(=O)O)C(=O)N[C@@H](Cc1ccccc1)C(=O)N[C@H](C(=O)N[C@@H](CCCNC(=N)N)C(=O)N[C@@H](Cc1c[nH]cn1)C(=O)N[C@@H](CC(C)C)C(=O)N[C@@H](CC(C)C)C(=O)N[C@@H](CC(N)=O)C(=O)N[C@@H](CCCCN)C(=O)NC(C)(C)C(=O)N[C@H](C(=O)N[C@@H](CCCNC(=N)N)C(=O)N[C@@H](CCC(N)=O)C(=O)N[C@@H](CCCNC(=N)N)C(=O)N[C@@H](Cc1ccc(O)cc1)C(N)=O)[C@@H](C)O)C(C)C)[C@@H](C)CC` [Example 33] (H-[NMeY][Aib]EGT[αMeF]TSDK([Gly-Gly-Gly-Gly-Palmitoyl])[Aib]I[Aib]LEKQRQ[Iva]EFVRHLLNK[Aib]TRQRY-NH2) yielded an EC50 in data set [2] of 0.13 nM. Moreover, the “Rate of feeding suppression (%)” value in data set [5] is listed as −58.4%.

As usually defined, the EC50 is the concentration needed to bring the measured effect to its halfway point.
